Holding throughout (assay type): cell-based
The target in assay [1] is T1, PAR2 (HT-29 cells) (Homo sapiens, UniProt P55085).
T1 construct: host or cells: HT-29
T1 sequence (P55085 26-397): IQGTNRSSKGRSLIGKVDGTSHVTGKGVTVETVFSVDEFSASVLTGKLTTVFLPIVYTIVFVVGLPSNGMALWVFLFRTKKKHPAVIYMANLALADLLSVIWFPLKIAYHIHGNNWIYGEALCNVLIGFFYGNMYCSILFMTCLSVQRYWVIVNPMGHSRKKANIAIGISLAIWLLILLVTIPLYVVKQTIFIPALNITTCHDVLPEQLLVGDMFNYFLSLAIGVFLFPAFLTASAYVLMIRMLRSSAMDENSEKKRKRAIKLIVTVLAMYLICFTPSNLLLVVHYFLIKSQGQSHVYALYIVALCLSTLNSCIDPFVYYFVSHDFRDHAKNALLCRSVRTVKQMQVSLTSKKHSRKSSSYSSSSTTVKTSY
Briefly: Ca FLIPR TETRA assay, ANTAGONIST mode, activator 8 μM SLIGKV. The settings on record: HT-29 cells, activator 8 μM SLIGKV; maximal antagonist concentration per Method (A: 0.1, 1 or 2 μM; B: 50 μM). The essentials: (§1)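 Ca2+ flux by FLIPR Tetra in HT-29 cells after 30 min r.t. compound preincubation, followed by stimulation with SLIGKV 8 μM, thrombin 1 U/mL, trypsin 3.1 U/mL or UTP 0.6 μM (final). Cells were dye-loaded with calcium 5 beforehand; compound-only responses were also read.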

Assay [2] has as its target T1, PAR2 (HT-29 cells). Briefly: Ca FLIPR TETRA assay, ANTAGONIST mode, activator 3.1 U/mL trypsin. The settings on record: for Trypsin, % @ 50: @ 50 (μM); for IC50: HT-29 cells, activator 3.1 U/mL trypsin, maximal antagonist concentration per Method (A: 0.1, 1 or 2 μM; B: 50 μM). The essentials: as §1
The subject of assay [3] is Thrombin-stimulated Ca2+ response in HT-29 cells. Briefly: Ca FLIPR TETRA assay, ANTAGONIST mode, activator 1 U/mL Thrombin. The settings on record: HT-29 cells, activator 1 U/mL Thrombin. A digest of the protocol: as §1
Assay [4] concerns UTP-stimulated Ca2+ response in HT-29 cells. Briefly: Ca FLIPR TETRA assay, ANTAGONIST mode, activator 0.6 μM UTP. The settings on record: for inhibition at 50 µM: HT-29; for IC50: HT-29 cells, activator 0.6 μM UTP. A digest of the protocol:
as §1

This is an account of results in patent publication US20180057505A1, “BICYCLIC HETEROARYL COMPOUNDS USEFUL AS INHIBITORS OF THE PAR-2 SIGNALING PATHWAY” (VERTEX PHARMACEUTICALS INCORPORATED, priority 2015, published 2018).

What is called IC50 is the midpoint of a concentration-inhibition curve. For orientation: inhibition means the percentage by which the read-out fell short of the control.

Regarding `CC(C)c1cc(-c2ccc(F)cc2)nc2cc(C(=O)N3CCN(C(=O)C4CCCC4)[C@@H](C)C3)oc12` [Example I-81], the IC50 on PAR2 (HT-29 cells) [1] was 0.022 µM; in assay [3] (Homo sapiens), above 50 µM. For the same molecule, the “Trypsin, % @ 50” value at PAR2 (HT-29 cells) [2] is listed as 66% @ 50. Moreover, in assay [4] (Homo sapiens), the inhibition at 50 µM stood at 46%.

Take `CCC(CC)C(=O)N1CCN(C(=O)c2cc3nc(-c4ccc(F)cc4)cc(C(C)C)c3o2)C[C@@H]1C` [Example I-82]: the half-inhibitory concentration (IC50) on PAR2 (HT-29 cells) [1] is 0.18 µM; in assay [3] (Homo sapiens), above 50 µM; in assay [4] (Homo sapiens) it was 47 µM. Further, the “Trypsin, % @ 50” value on PAR2 (HT-29 cells) [2] came out at 70% @ 50.

As for `CC(C)c1cc(-c2ccc(F)cc2)nc2cc(C(=O)N3CCN(C(=O)C(O)c4ccc(F)cc4)[C@@H](C)C3)oc12` (some centres unmarked) [Example I-83], the IC50 worked out at 0.0045 µM at PAR2 (HT-29 cells) [1], 0.0078 µM at PAR2 (HT-29 cells) [2], 11 µM in assay [3] (Homo sapiens) and 29 µM in assay [4] (Homo sapiens).

Turning to `CO[C@@H](C(=O)N1CCN(C(=O)c2cc3nc(-c4ccc(F)cc4)cc(C(C)C)c3o2)C[C@@H]1C)c1ccccc1` [Example I-84], the IC50 on PAR2 (HT-29 cells) [1] is 0.0063 µM; on PAR2 (HT-29 cells) [2] it was 0.029 µM; in assay [3] (Homo sapiens) it was 50 µM; in assay [4] (Homo sapiens), above 25 µM.

In the case of `CC(Oc1ccccc1)C(=O)N1CCN(C(=O)c2cc3nc(-c4ccc(F)cc4)cc(C(C)C)c3o2)C[C@@H]1C` (some centres unmarked) [Example I-85], the half-maximal inhibitory concentration (IC50) was 0.03 µM on PAR2 (HT-29 cells) [1], 0.25 µM at PAR2 (HT-29 cells) [2], above 50 µM in assay [3] (Homo sapiens) and above 50 µM in assay [4] (Homo sapiens).

Consider `CC(C)c1cc(-c2ccc(F)cc2)nc2cc(C(=O)N3CCN(C(=O)c4ccno4)[C@@H](C)C3)oc12` [Example I-86], for which the half-inhibitory concentration (IC50) is 0.39 µM on PAR2 (HT-29 cells) [1], 0.53 µM on PAR2 (HT-29 cells) [2] and above 50 µM in assay [3] (Homo sapiens). Further, in assay [4] (Homo sapiens), the inhibition at 50 µM was 60%.

`CC(C)c1cc(-c2ccc(F)cc2)nc2cc(C(=O)N3CCN(C(=O)C(C)(C)O)[C@@H](C)C3)oc12` [Example I-87]: the IC50 was 3.7 µM at PAR2 (HT-29 cells) [1], 3.8 µM on PAR2 (HT-29 cells) [2], 19 µM in assay [3] (Homo sapiens) and 16 µM in assay [4] (Homo sapiens).

In the case of `CC(C)c1cc(-c2ccc(F)cc2)nc2cc(C(=O)N3CCN(C(=O)C4CCCCO4)[C@@H](C)C3)oc12` (some centres unmarked) [Example I-88], the IC50 at PAR2 (HT-29 cells) [1] was determined as 0.16 µM; on PAR2 (HT-29 cells) [2] it was 0.34 µM; in assay [3] (Homo sapiens) it was 17 µM; in assay [4] (Homo sapiens), 17 µM.

Turning to `CC(C)c1cc(-c2ccc(F)cc2)nc2cc(C(=O)N3CCN(C(=O)C4(O)CCC4)[C@@H](C)C3)oc12` [Example I-89], the IC50 at PAR2 (HT-29 cells) [1] was determined as 1 µM; at PAR2 (HT-29 cells) [2], 1.1 µM; in assay [3] (Homo sapiens) it was 13 µM; in assay [4] (Homo sapiens), 11 µM.

As for `CC(C)c1cc(-c2ccc(F)cc2)nc2cc(C(=O)N3CCN(C(=O)[C@H](O)CC(C)(C)C)[C@@H](C)C3)oc12` [Example I-90], the IC50 at PAR2 (HT-29 cells) [1] was 0.0026 µM; on PAR2 (HT-29 cells) [2], 0.0072 µM; in assay [3] (Homo sapiens) it was above 50 µM; in assay [4] (Homo sapiens), 42 µM.

On to `CC(C)c1cc(-c2ccc(F)cc2)nc2cc(C(=O)N3CCN(C(=O)C4(O)CCOCC4)[C@@H](C)C3)oc12` [Example I-91], for which the IC50 at PAR2 (HT-29 cells) [1] was found to be 3.3 µM; on PAR2 (HT-29 cells) [2] it was 3.8 µM; in assay [3] (Homo sapiens) it was 9.4 µM; in assay [4] (Homo sapiens), 11 µM.

For `CC(C)c1cc(-c2ccc(F)cc2)nc2cc(C(=O)N3CCN(C(=O)C4(O)CCC4)CC3)oc12` [Example I-92], the IC50 at PAR2 (HT-29 cells) [1] was determined as 4.7 µM; on PAR2 (HT-29 cells) [2], 6.2 µM; in assay [3], 7.9 µM; in assay [4] it was 7.4 µM.

Turning to `CC(C)c1cc(-c2ccc(F)cc2)nc2cc(C(=O)N3CCN(C(=O)[C@@H](C)O)CC3)oc12` [Example I-93], the 50% inhibitory concentration (IC50) on PAR2 (HT-29 cells) [1] was found to be 18 µM; at PAR2 (HT-29 cells) [2], 16 µM; in assay [3] (Homo sapiens), 25 µM; in assay [4] (Homo sapiens), 29 µM.

On to `CC(C)c1cc(-c2ccc(F)cc2)nc2cc(C(=O)N3CCN(C(=O)[C@H](O)CC(C)(C)C)CC3)oc12` [Example I-94], for which the values for the IC50 (on PAR2 (HT-29 cells) [1]; on PAR2 (HT-29 cells) [2]; in assay [3] (Homo sapiens)) were 1.2 µM, 0.62 µM and 6.7 µM, respectively. Also, the inhibition at 50 µM in assay [4] (Homo sapiens) worked out at 74%.

Take `CC(C)c1cc(-c2ccc(F)cc2)nc2cc(C(=O)N3CCN(C(=O)C4(O)CCOCC4)CC3)oc12` [Example I-95]: the IC50 at PAR2 (HT-29 cells) [1] turned out to be 10 µM; on PAR2 (HT-29 cells) [2], 8.9 µM; in assay [3] (Homo sapiens), 15 µM; in assay [4] (Homo sapiens), 14 µM.

Take `CC(C)c1cc(-c2ccc(F)cc2)nc2cc(C(=O)N3CCN(C(=O)C(C)(C)O)CC3)oc12` [Example I-96]: the IC50 at PAR2 (HT-29 cells) [1] came to 13 µM; at PAR2 (HT-29 cells) [2] it was 12 µM; in assay [3] (Homo sapiens), 17 µM; in assay [4] (Homo sapiens), 14 µM.

For the molecule `CC(C)c1cc(-c2ccc(F)cc2)nc2cc(C(=O)N3CCN(C(=O)C4(O)CCC4)C[C@H]3C)oc12` [Example I-97], the IC50 was 4.1 µM at PAR2 (HT-29 cells) [1], 5.1 µM on PAR2 (HT-29 cells) [2], 18 µM in assay [3] (Homo sapiens) and 15 µM in assay [4] (Homo sapiens).

As to `CC(C)c1cc(-c2ccc(F)cc2)nc2cc(C(=O)N3CCN(C(=O)[C@@H](C)O)C[C@H]3C)oc12` [Example I-98], the IC50 at PAR2 (HT-29 cells) [1] stood at 5.3 µM; at PAR2 (HT-29 cells) [2] it was 7 µM; in assay [3] (Homo sapiens), 18 µM; in assay [4] (Homo sapiens), 20 µM.

Take `CC(C)c1cc(-c2ccc(F)cc2)nc2cc(C(=O)N3CCN(C(=O)[C@H](O)CC(C)(C)C)C[C@H]3C)oc12` [Example I-99]: the IC50 was 0.062 µM on PAR2 (HT-29 cells) [1], 0.43 µM at PAR2 (HT-29 cells) [2] and 3.9 µM in assay [3] (Homo sapiens). For the same molecule, the inhibition at 50 µM in assay [4] (Homo sapiens) came to 63%.

With `CC(C)c1cc(-c2ccc(F)cc2)nc2cc(C(=O)N3CCN(C(=O)C4(O)CCOCC4)C[C@H]3C)oc12` [Example I-100], the IC50 on PAR2 (HT-29 cells) [1] was 9.1 µM; at PAR2 (HT-29 cells) [2] it was 11 µM; in assay [3] (Homo sapiens), 16 µM; in assay [4] (Homo sapiens), 13 µM.

On to `CC(C)c1cc(-c2ccc(F)cc2)nc2cc(C(=O)N3CCN(C(=O)C(C)(C)O)C[C@H]3C)oc12` [Example I-101], for which the IC50 was 7.6 µM on PAR2 (HT-29 cells) [1], 9.1 µM on PAR2 (HT-29 cells) [2], 18 µM in assay [3] (Homo sapiens) and 13 µM in assay [4] (Homo sapiens).

Consider `CC(C)c1cc(-c2ccc(F)cc2)nc2cc(C(=O)N3CCN(C(=O)C4(O)CCC4)C[C@@H]3C)oc12` [Example I-102], for which the IC50 turned out to be 4.7 µM at PAR2 (HT-29 cells) [1], 5.2 µM at PAR2 (HT-29 cells) [2], 16 µM in assay [3] (Homo sapiens) and 5.4 µM in assay [4] (Homo sapiens).

In the case of `CC(C)c1cc(-c2ccc(F)cc2)nc2cc(C(=O)N3CCN(C(=O)[C@@H](C)O)C[C@@H]3C)oc12` [Example I-103], the IC50 on PAR2 (HT-29 cells) [1] was 7.9 µM; at PAR2 (HT-29 cells) [2], 8.5 µM; in assay [3] (Homo sapiens) it was 29 µM; in assay [4] (Homo sapiens), 24 µM.

`CC(C)c1cc(-c2ccc(F)cc2)nc2cc(C(=O)N3CCN(C(=O)[C@H](O)CC(C)(C)C)C[C@@H]3C)oc12` [Example I-104]: the IC50 is 0.73 µM at PAR2 (HT-29 cells) [1], 0.83 µM at PAR2 (HT-29 cells) [2] and 2.6 µM in assay [3] (Homo sapiens). The inhibition at 50 µM in assay [4] (Homo sapiens) was 64%.

For `CC(C)c1cc(-c2ccc(F)cc2)nc2cc(C(=O)N3CCN(C(=O)C4(O)CCOCC4)C[C@@H]3C)oc12` [Example I-105], the IC50 on PAR2 (HT-29 cells) [1] was determined as 8.7 µM; on PAR2 (HT-29 cells) [2], 7.7 µM; in assay [3] (Homo sapiens), 12 µM; in assay [4] (Homo sapiens), 15 µM.

On to `CC(C)c1cc(-c2ccc(F)cc2)nc2cc(C(=O)N3CCN(C(=O)C(C)(C)O)C[C@@H]3C)oc12` [Example I-106], for which the IC50 at PAR2 (HT-29 cells) [1] is 7.8 µM; at PAR2 (HT-29 cells) [2], 7.7 µM; in assay [3] (Homo sapiens) it was 15 µM; in assay [4] (Homo sapiens), 14 µM.
